In ChEMBL document CHEMBL3860046, “Increasing metabolic stability via the deuterium kinetic isotope effect: An example from a proline-amide-urea aminothiazole series of phosphatidylinositol-3 kinase alpha inhibitors” (Bioorg Med Chem Lett, 2016):
Calls of active or inactive are those of the source. No cut-off for these calls is given here.

Legend:
[1] = Drug level in rat hepatocytes treated with 1 uM (2S)-N1-[4-methyl-5-[2-[2,2,2-trideuterio-1,1-bis(trideuteriomethyl)ethyl]pyrimidin-4-yl]thiazol-2-yl]pyrrolidine-1,2-dicarboxamide measured after 40 to 60 mins by capillary-HPLC/MS analysis; format: ADME, cell-based, Hepatocyte
[2] = Drug level in human hepatocytes treated with 1 uM (2S)-N1-[4-methyl-5-[2-[2,2,2-trideuterio-1,1-bis(trideuteriomethyl)ethyl]pyrimidin-4-yl]thiazol-2-yl]pyrrolidine-1,2-dicarboxamide measured after 40 to 60 mins by capillary-HPLC/MS analysis; format: ADME, cell-based, Hepatocyte
[3] = Stability in rat liver microsomes assessed as compound remaining at 5 uM measured immediately after compound addition in presence of alamethicin,uridine 5'-diphospho-glucuronic acid,glutathione,NADPH by capillary-HPLC/MS analysis (reference value: 96.3 %); format: ADME; conditions: read-out: Stability
[4] = Stability in rat liver microsomes assessed as compound remaining at 5 uM measured after 1 hr in presence of alamethicin,uridine 5'-diphospho-glucuronic acid,glutathione,NADPH by capillary-HPLC/MS analysis (reference value: 96.3 %); format: ADME; conditions: read-out: Stability
[5] = Stability in human liver microsomes assessed as compound remaining at 5 uM measured after 1 hr in presence of alamethicin,uridine 5'-diphospho-glucuronic acid,glutathione,NADPH by capillary-HPLC/MS analysis (reference value: 96.3 %); format: ADME; conditions: read-out: Stability
[6] = Intrinsic clearance in mouse liver microsomes at 1 uM after 5 to 30 mins in presence of NADPH by LC-MS/MS analysis; format: ADME; conditions: read-out: CLH
[7] = Intrinsic clearance in rat liver microsomes at 1 uM after 5 to 30 mins in presence of NADPH by LC-MS/MS analysis; format: ADME; conditions: read-out: CLH
[8] = Intrinsic clearance in human liver microsomes at 1 uM after 5 to 30 mins in presence of NADPH by LC-MS/MS analysis; format: ADME; conditions: read-out: CLH
[9] = Volume of distribution at steady state in Sprague-Dawley rat at 1 mg/kg, iv or 3 mg/kg, po administered in cassette mode measured up to 48 hrs; format: ADME, organism-based; conditions: in vivo, read-out: Vdss
[10] = Terminal half life in Sprague-Dawley rat at 3 mg/kg, po administered in cassette mode; format: ADME, organism-based; conditions: in vivo, read-out: beta t1/2 (converted)
[11] = Dose normalized AUC in Sprague-Dawley rat at 1 mg/kg, iv administered in cassette mode measured up to 48 hrs; format: ADME, organism-based; conditions: in vivo
[12] = Dose normalized AUC in Sprague-Dawley rat at 3 mg/kg, po administered in cassette mode measured up to 48 hrs; format: ADME, organism-based; conditions: in vivo
[13] = Oral bioavailability in Sprague-Dawley rat at 3 mg/kg administered in cassette mode measured up to 48 hrs; format: ADME, organism-based; conditions: in vivo
[14] = Dose normalized Cmax in Sprague-Dawley rat at 1 mg/kg, iv or 3 mg/kg, po administered in cassette mode; format: ADME, organism-based; conditions: in vivo
[15] = Tmax in Sprague-Dawley rat at 1 mg/kg, iv or 3 mg/kg, po administered in cassette mode; format: ADME, organism-based; conditions: in vivo
[16] = Stability in Sprague-Dawley rat blood assessed as compound remaining at 1 mg/kg, iv administered in cassette mode measured after 0.5 hrs by capillary-HPLC/MS analysis; format: ADME, organism-based; conditions: whole blood, read-out: Stability
[17] = Stability in Sprague-Dawley rat blood assessed as compound remaining at 1 mg/kg, iv administered in cassette mode measured after 1 hr by capillary-HPLC/MS analysis; format: ADME, organism-based; conditions: whole blood, read-out: Stability
[18] = Stability in Sprague-Dawley rat blood assessed as compound remaining at 3 mg/kg, po administered in cassette mode measured after 0.5 hrs by capillary-HPLC/MS analysis; format: ADME, organism-based; conditions: whole blood, read-out: Stability
[19] = Stability in Sprague-Dawley rat blood assessed as compound remaining at 3 mg/kg, po administered in cassette mode measured after 1 hr by capillary-HPLC/MS analysis; format: ADME, organism-based; conditions: whole blood, read-out: Stability
[20] = AUC (0 to 24 hrs) in Harlan nude mouse plasma xenografted with Rat1 cells expressing myr-p110alpha at 50 mg/kg, po qd administered for 8 days measured post last dose; format: ADME, organism-based; parameters: time < 24 hr, dose 50 mg/kg, route oral
[21] = AUC (0 to 24 hrs) in Harlan nude mouse plasma xenografted with Rat1 cells expressing myr-p110alpha at 100 mg/kg, po qd administered for 8 days measured post last dose; format: ADME, organism-based; parameters: dose 100 mg/kg, time < 24 hr, route oral
[22] = AUC (0 to 24 hrs) in Harlan nude mouse plasma xenografted with Rat1 cells expressing myr-p110alpha at 150 mg/kg, po qd administered for 8 days measured post last dose; format: ADME, organism-based; parameters: time < 24 hr, dose 150 mg/kg, route oral
[23] = Antitumor activity in Rat1 cells expressing myr-p110alpha xenografted in Harlan nude mouse assessed as tumor regression at 100 mg/kg, po qd administered for 8 days measured post last dose; format: functional, Rattus norvegicus
[24] = Antitumor activity in Rat1 cells expressing myr-p110alpha xenografted in Harlan nude mouse assessed as tumor regression at 150 mg/kg, po qd administered for 8 days measured post last dose; format: functional, Rattus norvegicus
[25] = organism: Mus musculus; conditions: Harlan, Rat1, 50 mg/kg
[26] = organism: Mus musculus; conditions: Harlan, Rat1, 50 mg/kg; remark: listed apart in the source
[27] = (§1) Drug level in rat liver microsomes treated with (S)-N1-(5-(2-tert-butylpyrimidin-4-yl)-4-methylthiazol-2-yl)pyrrolidine-1,2-dicarboxamide at 5 uM measured after 1 hr in presence of alamethicin,uridine 5'-diphospho-glucuronic acid,glutathione,NADPH by capillary-HPLC/MS analysis; format: ADME
[28] = Drug level in human liver microsomes treated with (S)-N1-(5-(2-tert-butylpyrimidin-4-yl)-4-methylthiazol-2-yl)pyrrolidine-1,2-dicarboxamide at 5 uM measured after 1 hr in presence of alamethicin,uridine 5'-diphospho-glucuronic acid,glutathione,NADPH by capillary-HPLC/MS analysis; format: ADME
[29] = Stability in rat hepatocytes assessed as compound remaining at 1 uM measured after 40 to 60 mins by capillary-HPLC/MS analysis; format: ADME, cell-based, Hepatocyte; conditions: read-out: Stability
[30] = Stability in human hepatocytes assessed as compound remaining at 1 uM measured after 40 to 60 mins by capillary-HPLC/MS analysis; format: ADME, cell-based, Hepatocyte; conditions: read-out: Stability
[31] = Clearance in Sprague-Dawley rat at 1 mg/kg, iv administered in cassette mode measured up to 48 hrs; format: ADME, organism-based; conditions: in vivo
[32] = Antitumor activity in Rat1 cells expressing myr-p110alpha xenografted in Harlan nude mouse assessed as tumor regression at 25 mg/kg, po qd administered for 8 days measured post last dose; format: functional, Rattus norvegicus
[33] = Antitumor activity in Rat1 cells expressing myr-p110alpha xenografted in Harlan nude mouse assessed as tumor regression at 50 mg/kg, po qd administered for 8 days measured post last dose; format: functional, Rattus norvegicus
[34] = as §1, with “measured immediately” for “measured”, “compound addition” for “1 hr”; format: ADME

[2H]C([2H])([2H])C(c1nccc(-c2sc(NC(=O)N3CCC[C@H]3C(N)=O)nc2C)n1)(C([2H])([2H])[2H])C([2H])([2H])O
Drug metabolism [1]: Metabolite_Detected
Drug metabolism [2]: Metabolite_Detected

[2H]C([2H])([2H])C(c1nccc(-c2sc(NC(=O)N3CCC[C@H]3C(=O)O)nc2C)n1)(C([2H])([2H])[2H])C([2H])([2H])[2H]
Drug metabolism [1]: Metabolite_Detected
Drug metabolism [2]: Metabolite_Detected

Cc1nc(NC(=O)N2CCC[C@H]2C(N)=O)sc1-c1ccnc(C(C)(C)C)n1
remaining at 0 min, 5 µM [3]: 98.9%
remaining at 1 h, 5 µM [4]: 87.2%
remaining at 1 h, 5 µM [5]: 90.8%
microsomal CLint at 1 µM [6]: 35 µL/min/mg
microsomal CLint at 1 µM [7]: 55 µL/min/mg
microsomal CLint at 1 µM [8]: 32 µL/min/mg
Vd [9]: 1.2 L/kg
half-life [10]: 72 min
AUC/dose [11]: 2010 nM·kg·h/mg
AUC/dose [12]: 527 nM·kg·h/mg
bioavailability [13]: 26%
Cmax/dose [14]: 180 nM
Tmax [15]: 18 min
remaining at 0.5 h [16]: 90%
remaining at 1 h [17]: 86%
remaining at 0.5 h [18]: 74%
remaining at 1 h [19]: 73%
AUC at 24 h [20]: 65 µM·h
AUC at 24 h [21]: 134 µM·h
AUC at 24 h [22]: 383 µM·h
Activity [23]: 10%
Activity [24]: 51%
inhibition [25]: Active
inhibition [26]: Active

Cc1nc(NC(=O)N2CCC[C@H]2C(N)=O)sc1-c1ccnc(C(C)(C)CO)n1
Drug metabolism [27]: Metabolite_Detected
Drug metabolism [28]: Metabolite_Detected

[2H]C([2H])([2H])C(c1nccc(-c2sc(NC(=O)N3CCC[C@H]3C(N)=O)nc2C)n1)(C([2H])([2H])[2H])C([2H])([2H])[2H]
microsomal CLint at 1 µM [6]: 19 µL/min/mg
microsomal CLint at 1 µM [7]: 22 µL/min/mg
microsomal CLint at 1 µM [8]: 19 µL/min/mg
remaining at 1 µM [29]: 94.5%
remaining at 1 µM [30]: 96.2%
clearance [31]: 16 mL/min/kg
Vd [9]: 1.4 L/kg
half-life [10]: 90 min
AUC/dose [11]: 2750 nM·kg·h/mg
AUC/dose [12]: 1490 nM·kg·h/mg
bioavailability [13]: 54%
Cmax/dose [14]: 270 nM
Tmax [15]: 18 min
remaining at 0.5 h [16]: 95%
remaining at 1 h [17]: 95%
remaining at 0.5 h [18]: 91%
remaining at 1 h [19]: 91%
Activity [32]: 24%
Activity [33]: 63%

Cc1nc(NC(=O)N2CCC[C@H]2C(=O)O)sc1-c1ccnc(C(C)(C)C)n1
Drug metabolism [27]: Metabolite_Detected
Drug metabolism [28]: Metabolite_Detected
Drug metabolism [34]: Metabolite_Detected
